Data reported in patent US8461181B2, “Fused heterocyclic compound and use thereof” (Sumitomo Chemical Company, Ltd., priority 2009, dated 2013).

Columns and labels:
Assay type in all cases: in vivo
Aphis gossypii [1] = assay: Test Example 1: spray on cucumber seedling inoculated with Aphis gossypii; conditions: 500 ppm, 10 ml sprayed on cucumber seedling inoculated with about 30 Aphis gossypii; five days after spraying
Experimental: The formulations of the present active compounds (1) to (15), (17) to (25), (27) to (56), (101) to (103), (105) to (108), (117), (118), (121) to (130), (133) to (144), (147), (148), (152) to (156), (202), (204) to (206), (208), (209), (211) to (213), and (216) to (221) obtained by Formulation Example 5 were diluted with water so that the active ingredient concentration was 500 ppm, to prepare spray solutions for test. Separately, a cucumber seedling (second true leaf spreading stage) planted on a plastic cup was inoculated with about 30 Aphis gossypii, and left for 1 day. The above-described diluted solutions were sprayed each in an amount of 10 ml on this seedling. Five days after spraying, the number of insect of living Aphis gossypii […] on the leaves of this cucumber was checked, and the control value was calculated according to the following formula. Control value (%)={1-(Cb×Tai)/(Cai×Tb)}×100 Letters in the formula represent the following meanings. Cb: the number of insect before treatment on non-treated district Cai: the number of insect in observation on non-treated district Tb: the number of insect before treatment on treated district Tai: the number of insect in observation on treated district

Aphis gossypii [2] = assay: Test Example 2: foot drench of cucumber seedling on urethane mat, Aphis gossypii; conditions: soil, 168 h, 5 ml drench at foot of cucumber seedling on urethane mat, inoculated one day after treatment, checked seven days after
Experimental: The formulations of the present active compounds (4), (5), (8), (9), (11), (12), (14), (15), (17), (20), (35) to (45), (48) to (51), (54) to (56), (206), (209) and (211) to (213) obtained by Formulation Example 5 were diluted with water so that the active ingredient concentration was 500 ppm, to prepare diluted solutions for test. Separately, a cucumber seedling (second true leaf spreading stage) planted on a urethane mat was drenched at its foot with each 5 ml of the diluted solutions, and one day after treatment, the cucumber leaf surface was inoculated with 30 Aphis gossypii (whole stage). Further seven days after, the number of insect of living Aphis gossypii […] on the leaves of this cucumber was checked, and the control value was calculated according to the following formula. Control value (%)={1-(Cb×Tai)/(Cai×Tb)}×100 Letters in the formula represent the following meanings. Cb: the number of insect before treatment on non-treated district Cai: the number of insect in observation on non-treated district Tb: the number of insect before treatment on treated district Tai: the number of insect in observation on treated district

Bemisia tabaci = assay: Test Example 5: spray on tomato seedling with Bemisia tabaci larvae; conditions: 168 h, 10 ml/cup sprayed on tomato seedling with hatching Bemisia tabaci larvae, 7 days at 25° C.
Experimental: The formulations of the present active compounds (1) to (5), (7) to (15), (17) to (21), (25), (28) to (45), (48) to (56), (101) to (103), (106), (107), (117), (118), (121) to (145), (147) to (151), (153) to (155), (204), (206), (208), (209), (211) to (213) and (216) to (221) obtained by Formulation Example 5 were diluted with water so that the active ingredient concentration was 500 ppm, to prepare spray solutions for test. Separately, on a tomato seedling planted on a plastic cup, Bemisia tabaci adult insects were released and allowed to lay eggs for about 24 hours. The tomato seedling was kept in a greenhouse […], and the above-described spray solutions for test were sprayed at a proportion of 10 ml/cup on the condition of hatching of larvae from the laid eggs, and kept in a greenhouse of 25° C. for 7 days. The number of living larvae on the tomato leaves was checked, and the control value was calculated according to the following formula. Control value (%)={1−(Cb×Tai)/(Cai×Tb)}×100 Letters in the formula represent the following meanings. Cb: the number of insect before treatment on non-treated district Cai: the number of insect in observation on non-treated district Tb: the number of insect before treatment on treated district Tai: the number of insect in observation on treated district

Nilaparvata lugens [3] = assay: Test Example 7: foot drench of rice seedling, thirty first instar larvae of Nilaparvata lugens; conditions: soil, 144 h, 5 ml drench at foot of rice seedling, kept 7 days, thirty first instar larvae released, further 6 days
Experimental: The formulations of the present active compounds (11), (13) to (15), (17), (23), (26), (35) to (41), (43) to (45), (48) to (51), (54), (55), (209), (211) and (212) obtained by Formulation Example 5 were diluted with water so that the active ingredient concentration was 500 ppm, to prepare diluted solutions for test. Separately, a rice seedling (2 weeks after sowing, second leaf spreading stage) planted on a plastic cup was drenched at its foot with each 5 ml of the diluted solutions, and kept in a greenhouse of 25° C. for 7 days. Thirty first instar larvae of Nilaparvata lugens were released, and further kept in the greenhouse for 6 days. The number of insect of living Nilaparvata lugens […] on rice was checked, and the control value was calculated according to the following formula. Control value (%)={1-(Cb×Tai)/(Cai×Tb)}×100 Letters in the formula represent the following meanings. Cb: the number of insect before treatment on non-treated district Cai: the number of insect in observation on non-treated district Tb: the number of insect before treatment on treated district Tai: the number of insect in observation on treated district

Aphis gossypii [4] = assay: Test Example 4: foot drench of cucumber seedling in plastic cup, inoculation after 7 days, Aphis gossypii; conditions: soil, 144 h, 5 ml drench at foot of cucumber seedling in plastic cup, kept 7 days at 25° C., inoculated, further 6 days
Procedure, shortened: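 Cucumber seedlings at second true leaf stage were soil-drenched with 5 ml of 500 ppm active ingredient and held 7 days at 25° C in greenhouse. Then 30 aphids (all stages) were placed on leaves; live insects counted 6 days later, control value (%) from treated/untreated counts before and after.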

Nilaparvata lugens [5] = assay: Test Example 9: foot drench of rice seedling, twenty first instar larvae of Nilaparvata lugens; conditions: soil, 144 h, 5 ml drench at foot of rice seedling, kept 7 days, twenty first instar larvae released, further 6 days

Structure (SMILES) | control value (Aphis gossypii [1]) | pest or weed control at 500 ppm (Aphis gossypii [2]) | pest or weed control at 500 ppm (Bemisia tabaci) | also measured
CC(CC(=O)O)n1c(-c2ccncc2)nc2cc(C(F)(F)F)ccc21 (stereo not shown) [comparative compound (B)] | less than 30% |  |  | 
CCCCOc1cnccc1-c1nc2cc(C(F)(F)F)ccc2n1C [present active compound 206, 2-(3-butoxypyridin-4-yl-)-1-methyl-5-trifluoromethyl-1H-benzimidazole] |  | ≥ 90% | ≥ 90% | 
Cc1cc2nc(-c3ccncc3)n(C)c2cc1C [comparative compound (C)] | less than 30% |  |  | 
C=C(CF)Oc1cnccc1-c1nc2cc(C(F)(F)F)ccc2n1C [present active compound 209, 2-[3-(1-fluoromethyl-vinyloxy)-pyridin-4-yl-]-1-methyl-5-trifluoromethyl-1H-benzimidazole] |  | ≥ 90% | ≥ 90% | pest or weed control at 500 ppm (Nilaparvata lugens [3]): ≥ 90%
COCCc1cnccc1-c1nc2cc(C(F)(F)F)cnc2n1C [present active compound 106] |  |  | ≥ 90% | pest or weed control at 500 ppm (Aphis gossypii [4]): ≥ 90%; pest or weed control at 500 ppm (Nilaparvata lugens [5]): ≥ 90%
